Experimental data as given in paper PMC8791944, “GLUT3 inhibitor discovery through in silico ligand screening and in vivo validation in eukaryotic expression systems” (Scientific Reports, 2022).

test system: HepG2 (liver cancer) cells; assay: MTT cancer cell viability assay, HepG2; format: cell-based; settings: HepG2, 48 h
Protocol: A possible therapeutic application of GLUT3 inhibitors is in oncology, especially for cancers in which GLUT3 is a poor prognosis marker. We tested the effect of GLUT3 inhibitors on the cell viability of several different cancer lines: myeloid leukemia (HL60 and U937), lung cancer (A549), colorectal adenocarcinoma (Caco-2), breast cancer (MCF7), hepatocellular carcinoma (HepG2), and choriocarcinoma (BeWo) cells. GLUT3 inhibitors, at five different concentrations, ranging from 2 to 100 µM, were incubated with cancer cells for 48 h. Then, cell viability was assessed with the MTT assay. […] G3iC and G3iD also affected the leukemia cell lines but at double the concentrations of G3iB and G3iE. […] G3iB had some cytotoxic activity (CC50 < 50 µM) against the highest number of cancer cell lines (HL60, U937, A549, HepG2, and MCF7).
Cancer cell viability in the presence of GLUT3 inhibitors was assayed using the MTT Cell Viability Kit (Biotium Inc, Freemont, CA) according to manufacturer’s instructions. Cancer cells were grown in the corresponding medium, at 37 °C and 5% CO2 in a humidified incubator. The media (Gibco) for leukemia cells (HL60 and U937), A549, MCF7, BeWo, and HepG2 cells were RPMI 1640, Ham’s F-12K, DMEM:F-12, Ham’s F-12K, and EMEM, respectively, all supplemented with 10% (v/v) fetal bovine serum (HyClone). Caco-2 cells were grown in EMEM supplemented with 20% (v/v) fetal bovine serum. Cells were detached from the culture flasks with Accutase (Innovative Cell Technologies, Inc., San Diego, CA) according to manufacturer’s instructions. Cells were seeded in 96-well plates, at a density of ~ 30,000 cells/well (in 100 µl fresh media) and incubated with varying concentrations of GLUT3 inhibitors for 48 h, at 37 °C and 5% CO2 in a humidified incubator. The inhibitors were dissolved in DMSO, at 100× the final concentration, so that 1 µl of the stock inhibitor concentration was added per well, making the final DMSO concentration 1% (v/v). Therefore, controls for 100% cell viability were cells with 1% (v/v) DMSO without the inhibitors. Controls for 0% cell viability were cells treated with 0.3% (v/v) Tween 20. For MTT assay, 10 µl of MTT reagent was added in each well followed by 3–4 h incubation at 37 °C and 5% CO2 in a humidified incubator. After thoroughly mixing in 200 µl DMSO in each well, the plates were put into a plate reader (BioTek Synergy H1), and the absorbances at 570 nm and 630 nm were measured with Gen5 program (BioTek Inc.). The experimental values represent Abs570 nm-Abs630 nm with each inhibitor condition and control being the average of three wells.
Supplementary Figure S8. Effect of GLUT3 inhibitors on the viability of various cancer cell lines. Cell viability was determined by MTT assay in A549 (lung cancer), BeWo (choriocarcinoma), Caco-2 (colon cancer), HepG2 (liver cancer), HL-60 (leukemia), MCF7 (breast cancer), and U937 (histiocytic lymphoma) cell lines. GLUT3 inhibitors at concentrations of 2, 5, 10, 20, 50, and 100 µM were incubated with cells in 96-well plates for 48 hours before the addition of the MTT reagent.

| SMILES | CC50 [µM] |
| --- | --- |
| COc1ccccc1-n1c(/C=C/c2ccc(O)cc2)nc2ccc(Br)cc2c1=O [G3iB, 6-bromo-2-[(E)-2-(4-hydroxyphenyl)ethenyl]-3-(2-methoxyphenyl)quinazolin-4(3H)-one] | 39.3 ± 4 |

same assay, conditions: Homo sapiens, HepG2, 48 h

| SMILES | CC50 [µM] |
| --- | --- |
| CC(=O)Nc1ccc(S(=O)(=O)Nc2ccc(Nc3cc(N(C)C)nc(C)n3)cc2)cc1 [G3iA, N-(4-{[(4-{[6-(dimethylamino)-2-methylpyrimidin-4-yl]amino}phenyl)amino]sulfonyl}phenyl)acetamide] | > 100 |
| COc1ccccc1-n1c(/C=C/c2ccc(O)cc2)nc2ccc(Br)cc2c1=O [G3iB, 6-bromo-2-[(E)-2-(4-hydroxyphenyl)ethenyl]-3-(2-methoxyphenyl)quinazolin-4(3H)-one] | < 50 |
| Cc1cccnc1OC1CCN(c2cc(N3CCCC3CO)ncn2)CC1 (stereo not shown) [G3iC] | > 100 |
| Cc1cc(NC(=O)CCC2Cc3ccccc3NC2=O)nc(-c2ccccc2)n1 (stereo not shown) [G3iD] | > 100 |
| O=C(Nc1cccc(Cl)c1)c1cccc(NC(=O)c2cccc([N+](=O)[O-])c2)c1 [G3iE, N-{3-[(3-chloroanilino)carbonyl]phenyl}-3-nitrobenzamide] | > 100 |
| Cc1ccccc1CN(Cc1nnc(C(C)(C)C)o1)c1ccc2nc(O)[nH]c2c1 [G3iF] | > 100 |
